Measured values taken from US8822502B2, “Insecticidal compounds” (Syngenta Crop Protection LLC, priority 2008, dated 2014).

How the values were obtained:
Format in all cases: in vivo
Spodoptera littoralis = Spodoptera littoralis cotton leaf disc spray test; conditions: foliar, 72 h, application rate 200 ppm, sprayed cotton leaf discs, L1 larvae, 3 days after treatment, mortality, feeding behavior, growth regulation
Text: Spodoptera Littoralis (Egyptian Cotton Leafworm):
Cotton leaf discs were placed on agar in a 24-well microtiter plate and sprayed with test solutions at an application rate of 200 ppm. After drying, the leaf discs were infested with 5 L1 larvae. The samples were checked for mortality, feeding behavior, and growth regulation 3 days after treatment (DAT).

Heliothis virescens = Heliothis virescens egg / artificial diet test; conditions: 96 h, application rate 200 ppm (concentration in well 18 ppm), eggs 0-24 h old on artificial diet, 4 days, egg mortality, larval mortality, growth regulation
Method: Heliothis Virescens (Tobacco Budworm):
Eggs (0-24 h old) were placed in 24-well microtiter plate on artificial diet and treated with test solutions at an application rate of 200 ppm (concentration in well 18 ppm) by pipetting. After an incubation period of 4 days, samples were checked for egg mortality, larval mortality, and growth regulation.

Plutella xylostella = Plutella xylostella artificial diet test; conditions: 144 h, application rate 200 ppm (concentration in well 18 ppm), L2 larvae, 6 days, larval mortality, growth regulation
Method: Plutella Xylostella (Diamond Back Moth):
24-well microtiter plate (MTP) with artificial diet was treated with test solutions at an application rate of 200 ppm (concentration in well 18 ppm) by pipetting. After drying, the MTP's were infested with L2 larvae (7-12 per well). After an incubation period of 6 days, samples were checked for larval mortality and growth regulation.

Diabrotica balteata = Diabrotica balteata artificial diet test; conditions: 120 h, application rate 200 ppm (concentration in well 18 ppm), L2 larvae, 5 days, larval mortality, growth regulation
Method: Diabrotica Balteata (Corn Root Worm):
A 24-well microtiter plate (MTP) with artificial diet was treated with test solutions at an application rate of 200 ppm (concentration in well 18 ppm) by pipetting. After drying, the MTP's were infested with L2 larvae (6-10 per well). After an incubation period of 5 days, samples were checked for larval mortality and growth regulation.

Thrips tabaci = Thrips tabaci sunflower leaf disc spray test; conditions: foliar, 168 h, application rate 200 ppm, sprayed sunflower leaf discs, population of mixed ages, 7 days, mortality
Method: Thrips Tabaci (Onion Thrips):
Sunflower leaf discs were placed on agar in a 24-well microtiter plate and sprayed with test solutions at an application rate of 200 ppm. […] After an incubation period of 7 days, samples were checked for mortality.

Tetranychus urticae = Tetranychus urticae bean leaf disc spray test; conditions: foliar, 192 h, application rate 200 ppm, sprayed bean leaf discs, mite populations of mixed ages, 8 days, egg, larval and adult mortality
Text: Tetranychus Urticae (Two-Spotted Spider Mite):
Bean leaf discs on agar in 24-well microtiter plates were sprayed with test solutions at an application rate of 200 ppm. After drying, the leaf discs are infested with mite populations of mixed ages. 8 days later, discs are checked for egg mortality, larval mortality, and adult mortality.

Measured: pest or weed control at 200 ppm

Cc1cc(C2=NOC(c3cc(Cl)cc(Cl)c3)(C(F)(F)F)C2Cl)ccc1C(=O)NCc1ccccc1 (stereo not drawn) [B8]
≥ 80%: all assays above

Cc1cc(C2=NOC(c3cc(Cl)cc(Cl)c3)(C(F)(F)F)C2C)ccc1C(=O)NC1CSC1 (stereo not drawn) [E2, 4-[5-(3,5-dichloro-phenyl)-4-methyl-5-trifluoromethyl-4,5-dihydro-isoxazol-3-yl]-2-methyl-N-thietan-3-yl-benzamide]
≥ 80%: all assays above
